Laboratory results reported in patent EP1216701A1, “Process to increase the concentration of meiosis-activating sterols (MAS) in the cholesterol synthesis and the use of potent inhibitors in the process” (Schering Aktiengesellschaft, priority 2000, dated 2002).

What was measured:
HepG2 cells = experiment: Accumulation of cholesterol precursors / C29-sterols (MAS) in HepG2 cells, GC/MS (SIM); assay type: cell-based, Human; settings: for changes in the cholesterol precursor pattern: at 10 µM, compared to potent inhibitors, data not shown; for Dienol (m/z 486) / Enol T-MAS (m/z 484) / Trienol FF-MAS (m/z 482): aminotriazole 20000 µM, tamoxifen 1 µM, combination 20000 + 1 µM, incubation time not clearly stated, ± SD; for FF-MAS Dimethylst.-trien (482 m/z) / Methylst.-dien (470 m/z) / T-MAS Dimethylst.-dien (484 m/z): bile acids 160 µM, 12-h, n=3, mean ± SD, ratio to internal standard epicoprostanol
Protocol: Human hepatoma HepG2 cells were cultured to confluency in 60-mm dishes in phenol-red-free Dulbecco's modified Eagle's medium (DMEM) containing Pen-Strep (100 µg/ml), glucose (10 mM), sodium bicarbonate (45 mM) and glutamine (4 mM) supplemented with 10% fetal calf serum as described previously (24). At the beginning of the experiment the medium was changed to serum-free DMEM supplemented with 10% lipid-free "controlled process serum replacement" (CPSR-1). Compounds were added from ethanolic stock solutions to produce final ethanol concentrations of 0.1-0.3% v/v. Controls received the same amount of ethanol. Aminotriazole was added in an aqueous solution. Slices of rat testis (25 µm; 25-50 mg wet weight) were incubated under the same conditions in a shaking water bath (37°C). For isotopomer spectral analysis (ISA) of lathosterol, 1-^13C-acetate was added in an aqueous solution to a final concentration of 1 mM.
(§1) Cells were washed three times with ice cold PBS (pH 7.4) (once with 2 mg/ml BSA and twice with PBS alone). Epicoprostanol (1 µg in 50 µl of hexane) was added as internal standard to each sample. Sterols were extracted in hexane/isopropanol (3:2 v/v; two times with 4 ml). After drying under nitrogen and alkaline hydrolysis (1 N NaOH in 80% ethanol, 1.5 h at 70°C), the sterols were extracted with cyclohexane (two times with 3 ml). After drying under nitrogen, sterols were converted to their trimethylsilyl (TMS) derivatives by adding 100 µl bis(trimethylsilyl)trifluoracetamide (Pierce)/n-decane (1:1; v/v) and heating for 1 h at 70°C in a conical glass tube. This solution (1-2 µl) was used for gas-chromatography/mass-spectrometry (GC/MS). Rat testes (0.05-0.15 g) were homogenized manually, and lipids were extracted in hexane/isopropanol (3:2 v/v; two times with 4 ml). The extracts were deproteinized with acetone (3 ml) and processed as described above. The observed sterol levels in testis were normalized to correspond to 0.1 g of tissue (wet weight).
(§2) Gas-chromatography was done in the splitless mode with temperature programming as follows: 150°C for 1 min, followed by 20°C/min up to 260°C and 10°C/min up to 280°C (hold for 15 min). Mass spectral data were collected either in the full-scan mode (m/z 50-550) or by selective ion monitoring (SIM). For SIM analyses the electron multiplier voltage was raised by 300 V after the elution of lathosterol to increase the sensitivity of detection for lanosterol, dihydrolanosterol, methylsterols, dimethylsterols and plant sterols. The internal standard epicoprostanol was monitored at m/z 370. […] Peak integration was performed manually, and sterols were quantified from SIM analyses against the internal standard. Unless stated otherwise, MAS amounts are given as a percentage of the control.

liver slices = experiment: Influence of bile acids on methylsterols and dimethylsterols in liver slices; assay type: cell-based; settings: bile acids 160 µM for 9-h, n=2 for UDCA, CDCA, DCA, n=3 for CA and LCA, ratio to campesterol
Protocol: as §1, §2

Question: For `C[C@]12CC[C@H](O)CC1=CC[C@@H]1[C@@H]2CC[C@]2(C)C(=O)CC[C@@H]12` [dehydroepiandrosterone], which “changes in the cholesterol precursor pattern” value (from here on “changes”) (HepG2 cells; HepG2 cells) is on record?
Answer: The value was “only minor changes”.

Question: What does the source list for `Nc1nc[nH]n1` [Aminotriazole]?
Answer: Dienol (m/z 486) (HepG2 cells; HepG2 cells): 725 ± 65 % of control; Enol T-MAS (m/z 484) (HepG2 cells; HepG2 cells): 610 ± 20 % of control; Trienol FF-MAS (m/z 482) (HepG2 cells; HepG2 cells): 229 ± 18 % of control

Question: How did the “suppression of the Δ24 reduction step (accumulation of desmosterol)” value (HepG2 cells; HepG2 cells, absence of miconazole, 10 µM potent inhibitors or 1 µM tamoxifen for 12 h) turn out when `CC/C(=C(\c1ccccc1)c1ccc(OCCN(C)C)cc1)c1ccccc1` [Tamoxifen] was run?
Answer: Its value is “strongly suppressed”.

Question: What about the “Dienol (m/z 486)” value (HepG2 cells; HepG2 cells) of the same molecule?
Answer: Its value is 34 ± 3 % of control.

Question: What about the “Enol T-MAS (m/z 484)” value (HepG2 cells; HepG2 cells) of the same molecule?
Answer: Its value is 617 ± 47 % of control.

Question: And the “Trienol FF-MAS (m/z 482)” value (HepG2 cells; HepG2 cells)?
Answer: The value was 297 ± 41 % of control.

Question: `C[C@H](CCC(=O)O)[C@H]1CC[C@H]2[C@@H]3[C@H](O)C[C@@H]4C[C@H](O)CC[C@]4(C)[C@H]3CC[C@]12C` [CDCA, Chenodeoxycholic acid] was tested. Which “FF-MAS Dimethylst.-trien (482 m/z)” value (HepG2 cells; HepG2 cells) did it give?
Answer: The value was 197 ± 10 % of control.

Question: What about the “Methylst.-dien (470 m/z)” value (HepG2 cells; HepG2 cells) of the same molecule?
Answer: Its value is 187 ± 5 % of control.

Question: And the “T-MAS Dimethylst.-dien (484 m/z)” value (HepG2 cells; HepG2 cells)?
Answer: Its value is 234 ± 11 % of control.

Question: What about the “FF-MAS Dimethylst.-trien (482 m/z)” value (liver slices) of the same molecule?
Answer: Its value is 128 % of control.

Question: What about the “Methylst.-dien (470 m/z)” value (liver slices) of the same molecule?
Answer: Its value is 181 % of control.

Question: And the “T-MAS Dimethylst.-dien (484 m/z)” value (liver slices)?
Answer: The value was 296 % of control.

Question: With `C[C@]12CCC(=O)C=C1CC[C@@H]1[C@@H]2CC[C@]2(C)C(=O)CC[C@@H]12` [androstenedione, 4-Androsten-3,17-dione] as the molecule, how does the “changes” value (HepG2 cells; HepG2 cells) read?
Answer: The value was “only minor changes”.

Question: Which “changes” value (HepG2 cells; HepG2 cells) does the source give for `C[C@]12CC[C@@H]3c4ccc(O)cc4CC[C@H]3[C@@H]1CC[C@@H]2O` [β-estradiol, 17β-Estradiol] here?
Answer: The value was “only minor changes”.

Question: What about the “effect on the accumulation of cholesterol precursors observed with progesterone alone” value (HepG2 cells; β-estradiol 10 µM in combination with progesterone 10 µM) of the same molecule?
Answer: Its value is “did not alter”.

Question: How did the “FF-MAS Dimethylst.-trien (482 m/z)” value (HepG2 cells; HepG2 cells) turn out when `C[C@H](CCC(=O)O)[C@H]1CC[C@H]2[C@@H]3CC[C@@H]4C[C@H](O)CC[C@]4(C)[C@H]3CC[C@]12C` [LCA, Lithocholic acid] was run?
Answer: The value was 453 ± 88 % of control.

Question: What about the “Methylst.-dien (470 m/z)” value (HepG2 cells; HepG2 cells) of the same molecule?
Answer: The value was 459 ± 29 % of control.

Question: And the “T-MAS Dimethylst.-dien (484 m/z)” value (HepG2 cells; HepG2 cells)?
Answer: Its value is 744 ± 155 % of control.

Question: What about the “FF-MAS Dimethylst.-trien (482 m/z)” value (liver slices) of the same molecule?
Answer: The value was 91 % of control.

Question: And the “Methylst.-dien (470 m/z)” value (liver slices)?
Answer: The value was 67 % of control.

Question: What about the “T-MAS Dimethylst.-dien (484 m/z)” value (liver slices) of the same molecule?
Answer: The value was 172 % of control.
